Measurements: patent publication US10654837B2, “Sulphamoylaryl derivatives and use thereof as medicaments for the treatment of liver fibrosis” (Janssen Pharmaceutica NV, priority 2017, dated 2020)
pIC50: −log10 of the molar value.

These compounds were tested against T1, 5HTR2B (Homo sapiens, UniProt P41595) (assay: 5HTR2B antagonist activity, calcium mobilization assay in human Maverick/293 cells (serotonin as agonist)). Conditions: intracellular calcium, emission 525 nm, read-out: Ca assay IC50.
T1 construct: host or cells: human Maverick/293 cells
T1 sequence (P41595 whole entry): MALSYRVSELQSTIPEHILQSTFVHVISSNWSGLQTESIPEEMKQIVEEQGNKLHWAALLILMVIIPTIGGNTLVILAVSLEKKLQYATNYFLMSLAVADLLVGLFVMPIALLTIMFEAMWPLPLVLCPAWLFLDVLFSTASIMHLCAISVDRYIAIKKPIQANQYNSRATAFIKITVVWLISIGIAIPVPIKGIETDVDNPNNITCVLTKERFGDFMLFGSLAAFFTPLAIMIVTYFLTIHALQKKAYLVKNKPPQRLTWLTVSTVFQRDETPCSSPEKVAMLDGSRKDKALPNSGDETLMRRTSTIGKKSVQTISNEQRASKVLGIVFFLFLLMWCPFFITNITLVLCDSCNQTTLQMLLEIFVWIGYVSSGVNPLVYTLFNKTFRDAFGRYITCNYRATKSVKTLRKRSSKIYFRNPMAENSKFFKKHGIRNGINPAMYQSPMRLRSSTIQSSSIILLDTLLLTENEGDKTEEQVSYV
Type: cell-based
Procedure, shortened: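 Serum-starved (2 h) human Maverick/293 cells loaded with calcium dye for 50 min at 37 °C, then antagonist preincubated 15-30 min before serotonin challenge. Calcium fluorescence (ex 485/em 525 nm) recorded for 80 s; peak-based % inhibition fitted sigmoidally for IC50.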
COc1ccc(S(=O)(=O)N[C@H]2CC[C@@H](O)CC2)cc1C(=O)Nc1ccc(F)c(C(F)F)c1 [Compound 38, N-(3-(Difluoromethyl)-4-fluorophenyl)-5-(N-((cis)-4-hydroxycyclohexyl)sulfamoyl)-2-methoxybenzamide] was tested, and the pIC50 was 9.22.
Work on COc1ccc(S(=O)(=O)N[C@H](C)C(N)=O)cc1C(=O)Nc1ccc(F)c(C(F)F)c1 [Compound 34b, (R)-5-(N-(1-Amino-1-oxopropan-2-yl)sulfamoyl)-N-(3-(difluoromethyl)-4-fluorophenyl)-2-methoxybenzamide] yielded a pIC50 of 6.78.
CCOc1ccc(S(=O)(=O)N[C@H]2CCOC2)cc1C(=O)Nc1ccc(F)c(C)n1 [Compound 198, (S)-2-ethoxy-N-(5-fluoro-6-methylpyridin-2-yl)-5-(N-(tetrahydrofuran-3-yl)sulfamoyl)benzamide] showed a pIC50 of 9.15.
With COc1ccc(S(=O)(=O)N[C@H]2CCOC2)cc1C(=O)Nc1ccc(F)c(F)c1 [Compound 111, (S)—N-(3,4-Difluorophenyl)-2-methoxy-5-(N-(tetrahydrofuran-3-yl)sulfamoyl) benzamide] the pIC50 was 8.89.
Work on COc1ccc(S(=O)(=O)N[C@H]2C[C@H](O)C2)cc1C(=O)Nc1ccc(Cl)cc1F [Compound 143a, N-(4-chloro-2-fluorophenyl)-5-(N-((trans)-3-hydroxycyclobutyl)sulfamoyl)-2-methoxybenzamide] yielded a pIC50 of 9.15.
With COc1ccc(S(=O)(=O)N[C@H]2C[C@H](C)C2)cc1C(=O)Nc1ccc(F)c(C)c1 [Compound 7b, N-(4-Fluoro-3-methylphenyl)-2-methoxy-5-(N-((trans)-3-methylcyclobutyl)sulfamoyl)benzamide] the pIC50 was 8.16.
In the case of COc1ccc(S(=O)(=O)N[C@H]2CCOC2)cc1C(=O)Nc1cc(Cl)cc(C#N)c1 [Compound 94, (S)—N-(3-Chloro-5-cyanophenyl)-2-methoxy-5-(N-(tetrahydrofuran-3-yl)sulfamoyl)benzamide], the pIC50 was 7.92.
COc1ccc(S(=O)(=O)N[C@H](C)CC#N)cc1C(=O)Nc1ccccc1Cl (single isomer, unassigned) [Compound 60b, (R*)—N-(2-chlorophenyl)-5-(N-(1-cyanopropan-2-yl)sulfamoyl)-2-methoxy benzamide] showed a pIC50 of 9.40.
In the case of COc1ccc(S(=O)(=O)N[C@H]2CCOC2)cc1C(=O)Nc1c(F)cccc1Cl [Compound 103, (S)—N-(2-Chloro-6-fluorophenyl)-2-methoxy-5-(N-(tetrahydrofuran-3-yl)sulfamoyl)benzamide], the pIC50 was 8.08.
With COc1ccc(S(=O)(=O)N[C@H]2CCOC2)cc1C(=O)Nc1cccc(C)c1 [Compound 159] the pIC50 was 9.15.
COc1ccc(S(=O)(=O)N[C@H]2CCOC2)cc1C(=O)Nc1ccccc1F [Compound 99, (S)—N-(2-Fluorophenyl)-2-methoxy-5-(N-(tetrahydrofuran-3-yl)sulfamoyl) benzamide] showed a pIC50 of 8.80.
Compound COc1ccc(S(=O)(=O)N[C@H]2CC[C@H](O)CC2)cc1C(=O)Nc1ccc(F)c(C)n1 [Compound 18, (trans)-N-(5-Fluoro-6-methylpyridin-2-yl)-5-(N-(−4-hydroxycyclohexyl)sulfamoyl)-2-methoxybenzamid] has a pIC50 of 6.65.
COc1ccc(S(=O)(=O)N[C@H]2CCOC2)cc1C(=O)Nc1c(F)cc(C#N)cc1F [Compound 80, (S)—N-(4-cyano-2,6-difluorophenyl)-2-methoxy-5-(N-(tetrahydrofuran-3-yl)sulfamoyl)benzamide] showed a pIC50 of 6.24.
In the case of COc1ccc(S(=O)(=O)NC2CCC2)cc1C(=O)Nc1ccc(F)cc1 [Compound 47, 5-(N-Cyclobutylsulfamoyl)-N-(4-fluorophenyl)-2-methoxybenzamide], the pIC50 was 9.30.
In the case of COc1ccc(S(=O)(=O)N[C@H]2CCCOC2)cc1C(=O)Nc1ccc(F)cc1 [Compound 41, (S)—N-(4-Fluorophenyl)-2-methoxy-5-(N-(tetrahydro-2H-pyran-3-yl)sulfamoyl) benzamide], the pIC50 was 9.15.
Compound COc1ccc(S(=O)(=O)NC2CCOCC2)cc1C(=O)Nc1ccc(F)c(C)n1 [Compound 17, N-(5-Fluoro-6-methylpyridin-2-yl)-2-methoxy-5-(N-(tetrahydro-2H-pyran-4-yl)sulfamoyl)benzamide] has a pIC50 of 8.14.
COc1ccc(S(=O)(=O)N[C@H]2C[C@H](O)C2)cc1C(=O)Nc1ccc(F)c(C(F)F)c1 [Compound 142a, N-(3-(difluoromethyl)-4-fluorophenyl)-5-(N-((trans)-3-hydroxycyclobutyl)sulfamoyl)-2-methoxybenzamide] showed a pIC50 of 8.66.
COc1cc(F)c(S(=O)(=O)N[C@H]2CCOC2)cc1C(=O)Nc1ccc(F)c(C)c1 [Compound 201, (S)-4-fluoro-N-(4-fluoro-3-methylphenyl)-2-methoxy-5-(N-(tetrahydrofuran-3-yl)sulfamoyl)benzamide] gave a pIC50 of 8.07.
Compound COc1ccc(S(=O)(=O)N[C@@H](C)C(N)=O)cc1C(=O)Nc1ccccc1Cl [Compound 59a] has a pIC50 of 9.70.
For COc1ccc(S(=O)(=O)N[C@H]2CCCOC2)cc1C(=O)Nc1ccc(F)c(C(F)F)c1 [Compound 37, (S)—N-(3-(Difluoromethyl)-4-fluorophenyl)-2-methoxy-5-(N-(tetrahydro-2H-pyran-3-yl)sulfamoyl)benzamide], the pIC50 was 9.10.
COc1ccc(S(=O)(=O)N[C@@H]2CCNC2)cc1C(=O)Nc1ccc(F)cc1F [Compound 188, (R)—N-(2,4-difluorophenyl)-2-methoxy-5-(N-(pyrrolidin-3-yl)sulfamoyl) benzamide] gave a pIC50 of 8.80.
In the case of COc1ccc(S(=O)(=O)N[C@H]2C[C@@H](O)C2)cc1C(=O)Nc1ccccc1Cl [Compound 155, N-(2-Chlorophenyl)-5-(N-((cis)-3-hydroxycyclobutyl)sulfamoyl)-2-methoxy benzamide], the pIC50 was 9.70.
COc1ccc(S(=O)(=O)NC2CC2)cc1C(=O)Nc1ccc(F)c(C)n1 [Compound 21, 5-(N-Cyclopropylsulfamoyl)-N-(5-fluoro-6-methylpyridin-2-yl)-2-methoxy benzamide] gave a pIC50 of 8.80.
COc1ccc(S(=O)(=O)NC2(C)COC2)cc1C(=O)Nc1ccc(F)cc1 [Compound 42, N-(4-Fluorophenyl)-2-methoxy-5-(N-(3-methyloxetan-3-yl)sulfamoyl)benzamide] was tested, and the pIC50 was 8.66.
COc1ccc(S(=O)(=O)N[C@H]2CCOC2)cc1C(=O)Nc1ccc(C#N)cc1F [Compound 73, (S)—N-(4-Cyano-2-fluorophenyl)-2-methoxy-5-(N-(tetrahydrofuran-3-yl)sulfamoyl)benzamide] was tested, and the pIC50 was 8.26.
In the case of COc1ccc(S(=O)(=O)N[C@H]2C[C@H](O)C2)cc1C(=O)Nc1ccc(F)cc1Cl [Compound 144a, N-(2-chloro-4-fluorophenyl)-5-(N-((trans)-3-hydroxycyclobutyl)sulfamoyl)-2-methoxybenzamide], the pIC50 was 9.30.
COc1ccc(S(=O)(=O)N[C@H]2CCOC2)cc1C(=O)Nc1cccc(F)c1Cl [Compound 3, (S)—N-(2-Chloro-3-fluorophenyl)-2-methoxy-5-(N-(tetrahydrofuran-3-yl)sulfamoyl) benzamide] was tested, and the pIC50 was 8.77.
For COc1ccc(S(=O)(=O)N[C@H]2CCNC2)cc1C(=O)Nc1ccc(Cl)cc1F [Compound 185, (S)—N-(4-chloro-2-fluorophenyl)-2-methoxy-5-(N-(pyrrolidin-3-yl)sulfamoyl) benzamide], the pIC50 was 9.10.
With COc1ccc(S(=O)(=O)NC2COC2)cc1C(=O)Nc1ccc(F)cc1 [Compound 43, N-(4-Fluorophenyl)-2-methoxy-5-(N-(oxetan-3-yl)sulfamoyl)benzamide] the pIC50 was 8.14.
